Like-named read-outs stand apart in the source and are kept apart here.
Tests used:
[1] = test system: MDA-MB-231 human breast cancer cells; test: Alamar Blue cell viability (antiproliferative) assay; format: cell-based
[2] = test system: MCF-7 human breast cancer cells; conditions: for antiproliferative activity in words: MCF-7
Description: All biochemical assays were performed in triplicate for the determination of mean values reported. The human breast carcinoma cell line MCF-7 was purchased from the European Collection of Animal Cell Cultures (ECACC) and was cultured in Eagle’s minimum essential medium with 10% fetal bovine serum, 2 mM L-glutamine and 100 μg/mL penicillin/streptomycin. The medium was supplemented with 1% non-essential amino acids. […] All cells were sub-cultured 3 times/week by trypsinisation.
Cells were seeded at a density of 5 × 10^3 cells/well (MCF-7) in triplicate in 96-well plates. […] Cell proliferation for MCF-7 and MDA-MB-231 cells was analysed using the Alamar Blue assay (Invitrogen Corp.). […] Experiments were performed in triplicate on at least three separate occasions.

[3] = test system: MCF-7 human breast cancer cells; test: cells
[4] = HPLC stability study in plasma; format: in vitro ADME, human; conditions: human, buffered plasma (plasma:buffer 1:9); Plasma; study over 264 h
Description: Analytical high-performance liquid chromatography (HPLC) stability studies were performed as follows using Symmetry® column (C18, 5 µm, 4.6 × 150 mm), Waters 2487 Dual Wavelength Absorbance detector, Waters 1525 binary HPLC pump and Waters 717 plus Autosampler (Waters Corporation, Milford, MA, USA) with detection at 254 nm as previously described. Samples were analysed using mobile phase acetonitrile (80%): water (20%), flow rate (1 mL/min) over 10 min. […] First, 30 µL of compound stock solution was diluted with appropriate buffer (1 mL); sample was shaken and injected immediately. Samples were withdrawn and analysed at the following time points: t = 0 min, 5 min, 30 min, 60 min, 90 min, 120 min, 24 h and 48 h. (ii) Thermal stability: Compound stock solution (1 mL) was placed in a glass vial on a heating block for 4 h at 60 °C. The sample was then cooled, diluted (acetonitrile) and analysed. (ii) Oxidising conditions: H2O2 (3%, 0.2 mL) was added to compound stock solution (0.8 mL). The vial was vortexed and retained at 20 °C, and the sample was analysed at 60, 120 180 and 240 min. (iv) Acidic conditions: HCl (0.1 M, 0.2 mL) was added to stock solutions (0.8 mL). The vial was mixed by vortex and retained at 20 °C. A sample was neutralised with NaOH (0.1 M, 0.2 mL) at 60, 120, 180 and 240 min, followed by HPLC analysis. (v) Alkaline conditions: NaOH (0.1 M, 0.2 mL) was added to stock solution (0.8 mL) of the compound in a vial. The vial was mixed by vortex and retained at 20 °C. A sample was neutralised with HCl (0.1 M, 0.2 mL) at 60, 120, 180 and 240 min followed by HPLC analysis. (vi) Photostability study: Compounds (stock solution, 1 mL) were placed in a vial, exposed to UV light for 4 h and then analysed by HPLC as above. Stability studies in plasma: Approval for this study was obtained from the School of Pharmacy and Pharmaceutical Sciences Trinity College Dublin Research Ethics Committee (2020–06-01-MS). Following informed consent, blood was withdrawn from healthy volunteers, and plasma was obtained by centrifugation and kept at −20 °C until further use. […] A sample (250 µL) was then added to the Eppendorf tube containing ZnSO4.7H2O solution (500 µL) (2% w/v ZnSO4 solution in acetonitrile:water, 1:1). The samples were centrifuged (10,000 rpm, 3 min), filtered (0.2 micron filter) and analysed by HPLC as above. Further samples were taken at one-hour intervals.

[5] = HPLC stability study in phosphate buffers; format: physicochemical; conditions: for compound remaining: all pH values (4, 7.4, 9), after 11 days; for stability in words: over the pH range studied; for remaining at 264 h, 14.6 µg/mL: study over 264 h
[6] = HPLC stability under degradation conditions (acid, alkali, heat, light, oxidation); conditions: for remaining at 4 h / remaining at 312 h, 0.5 mg/mL / remaining at 5 h, 0.5 mg/mL: % Remaining; for remaining at 6 h: 30% H2O2 added to stock solution, Hydrogen peroxide (30 % H2O2, 0.2 mL), 20 °C; for remaining at 312 h, 0.5 mg/mL: solution in acetonitrile:water 80:20, daylight, Daylight (acetonitrile (80%):water (20%) 13 days); for remaining at 5 h, 0.5 mg/mL: stock solution in acetonitrile:water 80:20, heated, 80 °C (heating block, 5 h)
Description: Samples were analysed using mobile phase acetonitrile (80%): water (20%), flow rate (1 mL/min) over 10 min. […] First, 30 µL of compound stock solution was diluted with appropriate buffer (1 mL); sample was shaken and injected immediately. […] (ii) Thermal stability: Compound stock solution (1 mL) was placed in a glass vial on a heating block for 4 h at 60 °C. The sample was then cooled, diluted (acetonitrile) and analysed. (ii) Oxidising conditions: H2O2 (3%, 0.2 mL) was added to compound stock solution (0.8 mL).
a All samples were analysed using acetonitrile (80%):water (20%) as the mobile phase over
10 min and a flow rate of 1 mL/min.

[7] = test system: NCI 60 human cancer cell line panel; test: NCI 60 cell line screen (SRB), panel values; conditions: for CC50: read-out: Mean LC50; for IC (TGI (total growth inhibition)): read-out: Mean TGI
[8] = test system: purified bovine brain tubulin; test: Tubulin polymerization assay (light scattering, BK006 kit); format: biochemical; conditions: compound at 10 μM; for Vmax: 37 °C, 340 nm; for Fold Reduction in Vmax: relative to vehicle
Description: Tubulin polymerization was monitored using the BK006 kit obtained from Cytoskeleton Inc. (Denver, CO, USA). The values reported represent the average values determined from two independent assays. Purified bovine brain tubulin (>99%, 3 mg/mL) in buffer containing PIPES (80 mM, pH 6.9), EGTA (0.5 mM), MgCl2 (2 mM), GTP (1 mM) and glycerol (10%) was incubated at 37 °C in vehicle (1% DMSO or EtOH (v/v) in dH2O) or with compounds 9h, 9q, 9s, 10h, 10p, 10r, 11h, 11p, 11r, 17f (all at 10 µM concentration); CA-4 (10 μM) was used as control. In this assay, light scattering is related to the concentration of polymerised microtubules produced. Tubulin assembly was monitored turbidimetrically at 340 nm at 37 °C in a Spectramax 340 PC spectrophotometer (Molecular Devices, Sunnyvale, CA, USA).

MDA-MB-231/ATCC = test: NCI-60 SRB screen, breast cancer; format: cell-based, human; conditions: Homo sapiens; MDA-MB-231; obtained from NCI; five concentrations 0.01–100 μM; 48 h; read-out: Antiproliferative Activity IC50
[9] = test system: microtubule network in MCF-7 cells; test: Immunofluorescence confocal microscopy; format: cell-based, human; conditions: 16 h
Description: CA-4 and β-lactam 9q depolymerise the microtubule network in MCF-7 cells. […] After 16 h, the cells were fixed in 4% paraformaldehyde and stained with mouse monoclonal anti-α-tubulin−FITC antibody (clone DM1A) (green), Alexa Fluor 488 dye, and counterstained with DAPI (blue). The confocal images were obtained by Leica SP8 confocal microscopy with Leica application suite X software. Representative confocal micrograph images of three separate experiments are shown above [scale bar: […]].
The effects of β-lactam 9q on MCF-7 cytoskeleton were determined using confocal microscopy as previously described. MCF-7 cells were seeded at 1 × 10^5 cells/mL in glass slides with eight chambers (BD Biosciences, San Jose, CA, USA). […] Following treatment, cells were gently washed in PBS, fixed for 20 min with 4% paraformaldehyde in PBS and permeabilised in 0.5% Triton X-100. The cells were then washed with PBS-T (PBS containing 0.1% Tween), blocked in 5% bovine serum albumin diluted in PBS-T and incubated with mouse monoclonal anti-α-tubulin-FITC antibody (clone DM1A) (Sigma, Milwaulkee, WI, USA) (1:100) for 2 h at 20 °C. The cells were washed again with PBS-T and incubated with Alexa Fluor 488 dye (1:450) for 1 h at 20 °C. Following washes in PBST, the cells were mounted in Ultra Cruz Mounting Media (Santa Cruz Biotechnology, Santa Cruz, CA, USA), which contained 4,6-diamino-2-phenolindol dihydrochloride (DAPI). The immunofluorescence cell images were captured by Leica SP8 confocal microscopy and analysed with Leica application suite X software. Microscopy experiments were performed on three independent occasions, and the images for these experiments were obtained on the same day using identical conditions.

[10] = 72 h, eight concentrations 0.001-50 μM, mean ± SEM, read-out: Antiproliferative Activity IC50
[11] = MCF7, 72 h, read-out: Antiproliferative Activity IC50, MCF-7, 72 h, eight concentrations 1–50 μM, mean ± SEM, Table 2
[12] = MCF7, read-out: Antiproliferative Activity IC50, MCF-7, eight concentrations 0.001–50 μM, mean ± SEM, Table 3
[13] = 1M HCl added to stock solution, 1M HCl (0.1 mL, 20 °C, 4h)
[14] = 1M HCl added to stock solution, 1M HCl (0.2 mL, 50 °C, 4h)
[15] = 1M NaOH added to stock solution, 1M NaOH (0.1 mL, 20 °C, 4h)
[16] = 1M NaOH added to stock solution, 1M NaOH (0.2 mL, 50 °C, 4h)
[17] = Homo sapiens, 60 cell, read-out: Mean GI50, mean over all NCI 60 cell lines
[18] = read-out: Mean GI50, mean over all NCI 60 cell lines

SMILES | melting point | antiproliferative activity in words [2] | IC50 [3, 11] | remaining at 264 h, 41.3 µg/mL [4] | IC50 [3, 12] | remaining at 264 h, 14.6 µg/mL ([5]; phosphate buffer, pH 4.0) | remaining at 264 h, 14.6 µg/mL ([5]; phosphate buffer, pH 7.4) | remaining at 264 h, 14.6 µg/mL ([5]; phosphate buffer, pH 9.0) | remaining at 4 h [6, 13] | remaining at 4 h [6, 14] | remaining at 6 h [6] | remaining at 312 h, 0.5 mg/mL [6] | remaining at 5 h, 0.5 mg/mL [6] | further results
C=C(C)C1C(=O)N(c2cc(OC)c(OC)c(OC)c2)C1c1ccc(C)cc1 (centres unmarked) [9g, 4-p-Tolyl-1-(3,4,5-trimethoxyphenyl)-3-(prop-1-en-2-yl)azetidine-2-one] | 102 to 104 °C | sub-micromolar |  |  |  |  |  |  |  |  |  |  |  | IC50 [1, 10]: 246 ± 17 nM
C=C(C)C1C(=O)N(c2cc(OC)c(OC)c(OC)c2)C1c1ccc2ccccc2c1 (centres unmarked) [9n, 4-Naphthalen-2-yl-1-(3,4,5-trimethoxyphenyl)-3-(prop-1-en-2-yl)azetidin-2-one] | 123 to 124 °C |  | 78100 ± 5470 nM |  |  |  |  |  |  |  |  |  |  | IC50 ([3]; MCF7, MCF-7): 139 nM; IC50 [1, 10]: 529 ± 80 nM; fold more potent than the 1-naphthyl compound 9m ([2]; MCF-7 IC50 ratio): 58 fold
C=CCC1C(=O)N(c2cc(OC)c(OC)c(OC)c2)C1c1ccc(OC)c([N+](=O)[O-])c1 (centres unmarked) [10q, 3-Allyl-4-(4-methoxy-3-nitrophenyl)-1-(3,4,5-trimethoxyphenyl)azetidin-2-one] | 108 to 110 °C |  |  | 90% | 619 ± 70 nM | 26% | 25% | 22% | 99.2% | 98.7% | 92% | 100% | 100% | compound remaining [5]: 22–26%; stability in words [5]: poor stability; remaining at 4 h [6, 15]: 97.8%; remaining at 4 h [6, 16]: 97.8%
C=C(C)C1C(=O)N(c2ccc(OC)cc2)C1c1cc(OC)c(OC)c(OC)c1 (centres unmarked) [9v, 1-(4-Methoxyphenyl)-3-(prop-1-en-2-yl)-4-(3,4,5-trimethoxyphenyl)azetidin-2-one] | 128 to 130 °C | minimal | 1160 ± 120 nM |  |  |  |  |  |  |  |  |  |  | 
C=C(C)C1C(=O)N(c2cc(OC)c(OC)c(OC)c2)C1c1ccc(Cl)cc1 (centres unmarked) [9b, 4-(4-Chlorophenyl)-1-(3,4,5-trimethoxyphenyl)-3-(prop-1-en-2-yl)azetidine-2-one] | 137 to 138 °C | sub-micromolar | 630 ± 70 nM |  |  |  |  |  |  |  |  |  |  | 
C=CCC1C(=O)N(c2cc(OC)c(OC)c(OC)c2)C1c1ccc(OC)c(N)c1 (centres unmarked) [10r, 3-Allyl-4-(3-amino-4-methoxyphenyl)-1-(3,4,5-trimethoxyphenyl)azetidin-2-one] |  |  |  | 97% | 35 ± 4 nM | 96% | 99% | 83% | 91.8% | 92.2% | 8% | 93% | 100% | IC50 ([3]; MCF7, MCF-7): 10 to 33 nM; GI50 [7, 17]: < 91.2 nM; CC50 ([7]; Homo sapiens, 60 cell): 79400 nM; IC (TGI (total growth inhibition)) ([7]; Homo sapiens, 60 cell): 53700 nM; GI50 [7, 18]: 85.1 nM; IC50 ([1]; read-out: IC50): 35 nM; Vmax [8]: 0.0029 mOD/min; Fold Reduction in Vmax [8]: 3.4; half-life at 14.6 µg/mL ([5]; phosphate buffer, pH range studied, medium not specified, read-out: half-life (t½) (converted)): > 24 h; IC50 (MDA-MB-231/ATCC): 35.2 nM; remaining at 4 h [6, 16]: 83.1%
C=C(C)C1C(=O)N(c2cc(OC)c(OC)c(OC)c2)C1c1ccc(SC)cc1 (centres unmarked) [9o, 4-(4-(Methylthio)phenyl)-3-(prop-1-en-2-yl)-1-(3,4,5-trimethoxyphenyl)azetidin-2-one] | 99 to 100 °C | sub-micromolar | 272000 ± 26400 nM |  |  |  |  |  |  |  |  |  |  | 
CC(=O)O[C@H]1C(=O)[C@@]2(C)[C@H]([C@H](OC(=O)c3ccccc3)[C@]3(O)C[C@H](OC(=O)[C@H](O)[C@@H](NC(=O)c4ccccc4)c4ccccc4)C(C)=C1C3(C)C)[C@]1(OC(C)=O)CO[C@@H]1C[C@@H]2O [paclitaxel] |  |  |  |  |  |  |  |  |  |  |  |  |  | effect on microtubule network [9]: induced the formation of microtubule bundles and pseudo-asters
C=CCC1C(=O)N(c2cc(OC)c(OC)c(OC)c2)C1c1ccc(OC)cc1 (centres unmarked) [10h, 3-Allyl-4-(4-methoxyphenyl)-1-(3,4,5-trimethoxyphenyl)azetidin-2-one] |  |  |  | 100% | 35 ± 5 nM | 28% | 41% | 24% | 97.5% | 99.6% | 100% | 100% | 100% | GI50 [7, 17]: < 91.2 nM; CC50 ([7]; Homo sapiens, 60 cell): 81300 nM; IC (TGI (total growth inhibition)) ([7]; Homo sapiens, 60 cell): 17400 nM; GI50 [7, 18]: 75.9 nM; Vmax [8]: 0.0056 mOD/min; Fold Reduction in Vmax [8]: 2.5; compound remaining [5]: 24–41%; stability in words [5]: poor stability; IC50 (MDA-MB-231/ATCC): 120 nM; remaining at 4 h [6, 15]: 96%
C=C(C)C1C(=O)N(c2ccc(SC)cc2)C1c1cc(OC)c(OC)c(OC)c1 (centres unmarked) [9t, 1-(4-(Methylthio)phenyl)-3-(prop-1-en-2-yl)-4-(3,4,5-trimethoxyphenyl)azetidin-2-one] | 113 to 115 °C | minimal | 131 ± 40 nM |  |  |  |  |  |  |  |  |  |  | 

— PMC10385824, “Antiproliferative and Tubulin-Destabilising Effects of 3-(Prop-1-en-2-yl)azetidin-2-Ones and Related Compounds in MCF-7 and MDA-MB-231 Breast Cancer Cells” (Pharmaceuticals, 2023)
